Experiments:
[1] = tested on: HUVECs co-cultured with hTERT-human hepatic stellate cells; assay: Stellate cell/endothelial cell co-culture tube formation assay; assay type: cell-based; conditions: […] 6, […] 3, 1.0 μM imatinib, 0.5 μM GW 5074
Procedure: One representative panel from 3 independent experiments is shown. […] Scale bar=200 μm.
The stellate cells were washed in PBS and mixed with early passage HUVECs (p<5) at a ratio of 1:4 and mixed into a 3.75 mg/ml Type 1 Rat tail collagen matrix (BD Biosciences) in M-199 media. 30 μl of this mixture was seeded onto each well of a half-area 96 well plate (Corning). The collagen was allowed to polymerize for 30 min at 37° C. and […] of complete EBM-2 media was added to each well. Various inhibitors were serially diluted in DMSO and subsequently added to duplicate wells 6 h post cell seeding. […] The endothelial tubes and the stellate cells were imaged at 48 h with a 10× objective on a confocal microscope. Images were collected across five fields per well.
Stellate cell/endothelial cell tube formation assay and mouse matrigel model. This assay was performed as described in the SI Methods. The stellate cells were a gift from Dr. David Brenner and previously described (Schnabl, et al. (2002) Laboratory investigation; a journal of technical methods and pathology 82:323-333). […] The mouse matrigel model was performed as previously described (Eliceiri, et al. (1999) Molecular cell 4:915-924 5) and further details of immunohistochemistry and animal dosing can be found herein.
To validate the findings of Example 10, a co-culture angiogenesis assay was utilized to evaluate similar combinations of PDGFR and RAF inhibitors. In the assay, HUVECs are mixed with hepatic stellate cells (a pericyte found in the perisinusoidal space of the liver) in a 3D-collagen gel. The co-culture produced endothelial tubes with pericyte contacts (from the stellate cells) that can be imaged and quantified as shown in FIGS. 4B and C.

[2] = molecular target: EGFR L861Q (Homo sapiens (Human), UniProt P00533, L861Q); assay: In vitro kinase panel (SelectScreen); assay type: biochemical
Procedure: (§1) In vitro kinase screen and competitive binding assay. […] 11-point Kd curves were determined for hits identified during the initial screen.

[3] = molecular target: B-RAF/C-RAF heterodimerization (Homo sapiens (Human), UniProt P15056); assay: B-RAF/C-RAF heterodimerization in HUVECs (immunoprecipitation/Western); assay type: cell-based; conditions: ECs stimulated with bFGF or VEGF
Sequence of B-RAF/C-RAF heterodimerization (P15056 whole entry, one chain of several): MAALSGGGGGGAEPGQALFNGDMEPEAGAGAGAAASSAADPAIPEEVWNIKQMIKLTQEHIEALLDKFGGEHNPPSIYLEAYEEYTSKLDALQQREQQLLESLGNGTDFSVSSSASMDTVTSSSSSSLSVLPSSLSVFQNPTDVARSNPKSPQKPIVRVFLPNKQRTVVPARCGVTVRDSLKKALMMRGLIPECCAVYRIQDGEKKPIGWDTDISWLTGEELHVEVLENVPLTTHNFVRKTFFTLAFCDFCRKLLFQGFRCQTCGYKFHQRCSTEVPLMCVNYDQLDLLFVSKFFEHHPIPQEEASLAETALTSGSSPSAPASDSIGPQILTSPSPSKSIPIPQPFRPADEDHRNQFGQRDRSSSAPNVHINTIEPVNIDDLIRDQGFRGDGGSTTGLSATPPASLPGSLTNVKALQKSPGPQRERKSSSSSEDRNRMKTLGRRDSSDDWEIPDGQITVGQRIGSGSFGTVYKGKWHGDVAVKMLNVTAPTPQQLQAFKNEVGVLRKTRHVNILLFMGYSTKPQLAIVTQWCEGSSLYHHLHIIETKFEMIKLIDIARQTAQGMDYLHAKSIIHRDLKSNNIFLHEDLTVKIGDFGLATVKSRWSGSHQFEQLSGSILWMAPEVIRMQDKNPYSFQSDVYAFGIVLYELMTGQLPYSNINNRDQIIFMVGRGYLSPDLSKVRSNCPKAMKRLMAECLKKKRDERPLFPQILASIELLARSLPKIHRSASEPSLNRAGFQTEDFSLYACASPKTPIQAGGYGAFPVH

[4] = molecular target: KIT (Homo sapiens (Human), UniProt P10721); assay: KINOMEscan competitive binding assay
Sequence of KIT (P10721 26-976): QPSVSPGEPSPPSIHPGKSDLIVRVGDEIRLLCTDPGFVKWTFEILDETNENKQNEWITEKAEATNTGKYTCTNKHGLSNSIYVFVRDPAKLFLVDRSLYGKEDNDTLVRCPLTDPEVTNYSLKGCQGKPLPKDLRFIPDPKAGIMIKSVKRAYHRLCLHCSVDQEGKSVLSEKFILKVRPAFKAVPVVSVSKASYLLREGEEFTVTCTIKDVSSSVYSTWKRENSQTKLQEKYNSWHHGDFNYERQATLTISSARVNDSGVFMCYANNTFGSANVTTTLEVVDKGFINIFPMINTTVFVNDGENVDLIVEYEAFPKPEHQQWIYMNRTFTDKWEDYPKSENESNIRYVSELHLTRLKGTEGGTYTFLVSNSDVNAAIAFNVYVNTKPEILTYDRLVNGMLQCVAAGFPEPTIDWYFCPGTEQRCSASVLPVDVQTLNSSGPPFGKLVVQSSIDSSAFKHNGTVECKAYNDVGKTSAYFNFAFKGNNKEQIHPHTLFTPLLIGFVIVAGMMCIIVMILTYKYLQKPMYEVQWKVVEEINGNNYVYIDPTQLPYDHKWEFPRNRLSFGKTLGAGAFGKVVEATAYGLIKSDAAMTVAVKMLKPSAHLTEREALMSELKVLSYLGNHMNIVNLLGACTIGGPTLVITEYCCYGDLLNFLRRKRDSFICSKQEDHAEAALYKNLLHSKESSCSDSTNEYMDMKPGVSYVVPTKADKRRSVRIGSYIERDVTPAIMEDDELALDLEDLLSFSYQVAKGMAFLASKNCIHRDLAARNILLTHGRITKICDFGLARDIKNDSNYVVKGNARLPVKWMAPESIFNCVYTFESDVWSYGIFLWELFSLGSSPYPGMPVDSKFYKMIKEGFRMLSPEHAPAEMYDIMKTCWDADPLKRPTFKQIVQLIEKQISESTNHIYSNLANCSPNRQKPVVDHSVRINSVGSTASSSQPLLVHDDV
Procedure: (§2) In vitro kinase screen and competitive binding assay. […] For the competitive binding assay, test compounds were screened at 10 μM against 70 diverse kinase targets for competitive binding using the KINOMEscan™ technology (Ambit Biosciences) (Karaman, et al. (2008) Nature biotechnology 26:127-132). 11-point Kd curves were determined for hits identified during the initial screen.

[5] = molecular target: PDGFRB (Homo sapiens (Human), UniProt P09619); assay: KINOMEscan competitive binding assay
Sequence of PDGFRB (P09619 33-1106): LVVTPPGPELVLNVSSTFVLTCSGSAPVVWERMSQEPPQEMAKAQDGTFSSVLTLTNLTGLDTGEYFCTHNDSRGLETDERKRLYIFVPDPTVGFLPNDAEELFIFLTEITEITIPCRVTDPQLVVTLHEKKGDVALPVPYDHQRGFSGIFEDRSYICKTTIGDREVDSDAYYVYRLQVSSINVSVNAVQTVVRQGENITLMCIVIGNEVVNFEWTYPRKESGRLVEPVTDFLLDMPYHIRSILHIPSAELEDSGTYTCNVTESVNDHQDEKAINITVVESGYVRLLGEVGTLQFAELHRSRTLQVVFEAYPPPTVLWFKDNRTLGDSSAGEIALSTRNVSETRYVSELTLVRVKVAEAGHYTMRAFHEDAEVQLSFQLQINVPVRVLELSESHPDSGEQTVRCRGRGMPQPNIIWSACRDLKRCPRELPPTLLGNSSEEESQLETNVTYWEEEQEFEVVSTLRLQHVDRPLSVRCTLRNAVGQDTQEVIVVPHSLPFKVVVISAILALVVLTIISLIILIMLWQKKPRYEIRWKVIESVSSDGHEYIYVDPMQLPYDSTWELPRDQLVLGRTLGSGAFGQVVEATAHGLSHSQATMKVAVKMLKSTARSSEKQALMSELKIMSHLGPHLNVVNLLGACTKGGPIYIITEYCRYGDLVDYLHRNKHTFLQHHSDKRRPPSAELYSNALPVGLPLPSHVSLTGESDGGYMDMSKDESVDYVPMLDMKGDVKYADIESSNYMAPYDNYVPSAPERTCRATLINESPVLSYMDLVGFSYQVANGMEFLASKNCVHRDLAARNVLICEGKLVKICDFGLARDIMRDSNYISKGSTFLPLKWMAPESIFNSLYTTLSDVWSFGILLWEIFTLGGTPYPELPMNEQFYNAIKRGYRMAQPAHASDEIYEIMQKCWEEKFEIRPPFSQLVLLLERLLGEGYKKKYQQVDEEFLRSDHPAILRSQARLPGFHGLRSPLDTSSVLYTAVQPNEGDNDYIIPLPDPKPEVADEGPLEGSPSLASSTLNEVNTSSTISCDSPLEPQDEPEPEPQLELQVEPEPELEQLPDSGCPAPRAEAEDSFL
Procedure: as §2

[6] = molecular target: CSF1R (Homo sapiens (Human), UniProt P07333); assay: In vitro kinase panel (SelectScreen); assay type: biochemical
Sequence of CSF1R (P07333 20-972): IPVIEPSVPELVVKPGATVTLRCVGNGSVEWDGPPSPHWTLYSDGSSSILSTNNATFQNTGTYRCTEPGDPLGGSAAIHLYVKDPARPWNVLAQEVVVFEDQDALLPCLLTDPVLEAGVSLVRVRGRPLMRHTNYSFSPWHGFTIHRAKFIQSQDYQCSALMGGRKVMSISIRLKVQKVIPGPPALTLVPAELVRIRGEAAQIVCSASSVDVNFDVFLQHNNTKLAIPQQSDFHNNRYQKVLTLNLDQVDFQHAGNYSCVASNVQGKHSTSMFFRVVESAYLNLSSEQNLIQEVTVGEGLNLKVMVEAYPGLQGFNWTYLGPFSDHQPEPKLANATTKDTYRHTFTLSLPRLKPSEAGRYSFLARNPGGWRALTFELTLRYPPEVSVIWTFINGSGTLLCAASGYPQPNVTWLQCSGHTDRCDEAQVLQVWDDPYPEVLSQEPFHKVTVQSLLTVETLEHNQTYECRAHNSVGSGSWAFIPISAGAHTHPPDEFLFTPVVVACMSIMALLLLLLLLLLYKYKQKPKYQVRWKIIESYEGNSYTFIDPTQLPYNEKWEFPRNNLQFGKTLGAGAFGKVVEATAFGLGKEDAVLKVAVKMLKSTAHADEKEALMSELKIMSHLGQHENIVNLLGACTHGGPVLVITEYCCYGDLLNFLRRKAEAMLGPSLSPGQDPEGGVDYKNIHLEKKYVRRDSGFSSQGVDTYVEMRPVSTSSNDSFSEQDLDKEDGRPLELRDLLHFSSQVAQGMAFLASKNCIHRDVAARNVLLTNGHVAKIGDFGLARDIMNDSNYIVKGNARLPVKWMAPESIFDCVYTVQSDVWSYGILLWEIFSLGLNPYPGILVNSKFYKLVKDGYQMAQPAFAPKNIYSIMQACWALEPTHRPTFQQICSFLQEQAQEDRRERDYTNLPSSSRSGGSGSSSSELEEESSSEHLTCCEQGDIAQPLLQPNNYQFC
Procedure: as §1

[7] = molecular target: BRAF (Homo sapiens (Human), UniProt P15056); assay: In vitro kinase panel (SelectScreen); assay type: biochemical
Sequence of BRAF (P15056 whole entry): as the sequence (P15056 whole entry, one chain of several) above
Procedure: as §1

[8] = tested on: MDA-MB231; assay: Tumor cell viability; assay type: cell-based, human; conditions: Breast AC MDA-MB231, B-RAF/Ras
Procedure: For XTT assays, cells were grown in 96-well plates overnight and all assays were conducted in growth medium will full serum and additives. Compounds were serially diluted in DMSO and then further diluted into the medium to give the appropriate concentration while minimizing precipitation associated with serial diluting in medium alone Inhibitors were added for 72 h and cell viability was quantified at 450 nm after the addition of 1 mg/ml XTT solution (Sigma-Aldrich) in phenol-red free DMEM medium containing […] (Sigma-Aldrich). Dose-response curves were plotted using GraphPad Prism software and EC50s were calculated using this program.

[9] = molecular target: p38-alpha (Homo sapiens (Human), UniProt Q16539); assay: KINOMEscan competitive binding assay; conditions: 10 uM
Procedure: For the competitive binding assay, test compounds were screened at 10 μM against 70 diverse kinase targets for competitive binding using the KINOMEscan™ technology (Ambit Biosciences) (Karaman, et al. (2008) Nature biotechnology 26:127-132). 11-point Kd curves were determined for hits identified during the initial screen.

[10] = molecular target: CSNK1E (Homo sapiens (Human), UniProt P49674); assay: KINOMEscan competitive binding assay; conditions: 10 uM
Sequence of CSNK1E (P49674 whole entry): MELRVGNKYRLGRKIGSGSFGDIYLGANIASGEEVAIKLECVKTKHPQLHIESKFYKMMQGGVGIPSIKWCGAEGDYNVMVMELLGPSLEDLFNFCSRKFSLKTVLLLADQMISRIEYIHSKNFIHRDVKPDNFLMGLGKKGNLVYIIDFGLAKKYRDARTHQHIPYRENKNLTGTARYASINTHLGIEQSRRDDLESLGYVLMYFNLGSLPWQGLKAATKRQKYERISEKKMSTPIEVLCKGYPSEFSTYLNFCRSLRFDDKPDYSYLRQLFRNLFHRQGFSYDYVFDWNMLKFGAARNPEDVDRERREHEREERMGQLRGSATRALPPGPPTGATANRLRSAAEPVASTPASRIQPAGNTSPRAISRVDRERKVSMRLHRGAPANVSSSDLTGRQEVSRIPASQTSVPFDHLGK

[11] = molecular target: CRAF S338 (Mus musculus (Mouse), UniProt Q99N57); assay: CRAF S338 phosphorylation in R40P cells (Western); assay type: cell-based; conditions: 12 h, sorafenib 5 μM, compound 6 5, 2.5, 1.25 μM
Sequence of CRAF S338 (Q99N57 whole entry): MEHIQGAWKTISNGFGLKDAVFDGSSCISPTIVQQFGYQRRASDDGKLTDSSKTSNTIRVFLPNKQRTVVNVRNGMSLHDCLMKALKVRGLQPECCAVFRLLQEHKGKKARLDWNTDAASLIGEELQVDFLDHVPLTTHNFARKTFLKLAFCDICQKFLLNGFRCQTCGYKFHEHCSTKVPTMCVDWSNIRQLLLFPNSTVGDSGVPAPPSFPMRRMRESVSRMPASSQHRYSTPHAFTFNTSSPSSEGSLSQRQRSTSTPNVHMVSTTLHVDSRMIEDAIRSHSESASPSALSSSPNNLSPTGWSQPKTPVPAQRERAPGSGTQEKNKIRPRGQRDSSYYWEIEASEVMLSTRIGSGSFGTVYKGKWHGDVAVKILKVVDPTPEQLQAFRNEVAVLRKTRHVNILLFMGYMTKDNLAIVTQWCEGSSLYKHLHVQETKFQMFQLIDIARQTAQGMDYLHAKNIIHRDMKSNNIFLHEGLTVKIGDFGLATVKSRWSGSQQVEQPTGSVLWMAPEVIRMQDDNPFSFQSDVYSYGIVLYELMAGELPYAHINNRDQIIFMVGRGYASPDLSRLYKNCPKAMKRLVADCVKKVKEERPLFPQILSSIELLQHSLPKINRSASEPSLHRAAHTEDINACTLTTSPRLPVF
Procedure: R40P cells are derived from a spontaneous pancreatic adenocarcinoma mouse model which expresses K-ras^G12D while p16/Ink4a/ARF is lost. […] At this time the cells were lysed and protein levels were quantified by BCA analysis. The lysates were then loaded on an SDS-PAGE gel and transferred to nitrocellulose for Western blotting. Immunoblotting was performed with the following antibodies: pMEK1/2 S217/S221 (Cell Signaling), pCRAF S338 (Cell Signaling), and total CRAF (BD Biosciences). Chemilluminescence was used for detection on film.

[12] = Treatment of fibrosis in patients with interstitial lung disease; assay type: in vivo, human; conditions: 50 mg/Kg/day, oral, 6 months
Procedure: This can include patients referred for presumed pulmonary fibrosis/interstitial pneumonitis (IPF, UIP, NSIP), sarcoidosis, hypersensitivity pneumonitis, cryptogenic organising pneumonia, drug-induced, or other idiopathic ILDs. The patients are evaluated after 6 months of treatment.

[13] = molecular target: PRKD1 (Homo sapiens (Human), UniProt Q15139); assay: KINOMEscan competitive binding assay; conditions: 10 uM

| Compound | endothelial tube formation and % pericyte-covered tube length [1] | % Inhibition at 10 μM [2] [%] | B-RAF/C-RAF heterodimer formation [3] | Kd [4] [nM] | Kd ([5]; PDGFRβ) [nM] | % Inhibition at 10 μM [6] [%] | % Inhibition at 10 μM [7] [%] | % Control ([4]; 10 uM) [%] | EC50 [8] [nM] | % Control [9] [%] | % Control [10] [%] | % Control ([5]; 10 uM, PDGFRB) [%] | phosphorylation on CRAF S338 [11] | outcome of fibrosis treatment versus placebo [12] | % Control [13] [%] | EC50 ([8]; Homo sapiens, MDA-MB-231) [nM] |
| --- | --- | --- | --- | --- | --- | --- | --- | --- | --- | --- | --- | --- | --- | --- | --- | --- |
| Nc1cc(Oc2ccc(-c3nnc(Nc4cccc(C(F)(F)F)c4)[nH]3)cc2)ncn1 [Compound 3] | did not affect endothelial tube formation | −1 | had no effect | 3.7 | 40 | 79 | 17 |  |  |  |  |  |  |  |  |  |
| CSc1nc(N)cc(Oc2ccc(-c3nnc(Nc4cccc(C(F)(F)F)c4)[nH]3)cc2)n1 [Compound 6] | dramatic reduction | −4 | completely inhibited |  |  | 23 | −1 | 0 | 480 | 100 | 47 | 0.5 | does not promote this increase | improvement over placebo group | 100 |  |
| CNC(=O)c1cc(Oc2ccc(NC(=O)Nc3ccc(Cl)c(C(F)(F)F)c3)cc2)ccn1 [sorafenib, reference compound] |  |  |  |  |  |  |  |  |  |  |  |  | induces an increase |  |  | > 10000 |
